Reference: patent US8110681B2, “Compounds for the treatment of spinal muscular atrophy and other uses” (The United States of America as represented by the …, priority 2006, dated 2012)
Read-outs that look alike come from different tables or passages of the source.

System: SMN2-linked luciferase-reporter gene construct
Experiment: SMN splice reporter assay (SMN2-linked luciferase reporter, Example 10)
Type: cell-based
Source text: Cervical carcinoma cell lines were transformed with a SMN2-linked luciferase-reporter gene construct. The reporter is designed to detect shifts in the alternative splicing of SMN2 sequences. In particular, the reporter is constructed as a fusion of the alternatively spliced sequences of the SMN2 gene and the luciferase gene. Luciferase sequences are in the correct translational reading frame only when the SMN2 sequences are spliced according to the normal SMN1 mechanism (e.g., splicing to include exon 7), which allows for translation of the stable SMN protein. Compounds were tested in the assay by administering the compound to the cell line and detecting an increase in the luciferase activity. The assay is described in greater detail in Zhang et al., Gene Ther., 8, 1532-8 (2001). Compounds were administered as described in Lunn et al, Chem. & Biol, 11, 1489-1493 (2004).
The results are reported as a fold-increase over a baseline reading of transformed cells without any test compound.

[1] = SMN2-linked luciferase reporter, average
[2] = maximum fold increase of reporter signal, average, read-out: SMN Splice Reporter Assay (Example 10) Avg MaxFold Increase
[3] = SMN2-linked luciferase reporter, average maximum fold increase, read-out: SMN Splice Reporter Assay (Example 10) Avg MaxFold Increase

| Structure (SMILES) | EC50 [1] [nM] | maximal fold induction [2] | further results |
| --- | --- | --- | --- |
| Cc1ccc(-c2ccc3c(c2)CN(c2ccc(C(C)C(=O)O)cc2)C3=O)cc1 (stereo not drawn) [ALB-111891] | 8880 | 1.31 |  |
| CC(C(=O)OC(C)(C)C)c1ccc(N2Cc3ccccc3C2=O)cc1 (stereo not drawn) [ALB-111730] | 1660 |  | SMN Splice Reporter Assay (Example 10) Avg MaxFold Increase (maximum fold increase of reporter signal, average): 1.267 |
| Cc1ccc(-c2ccc3c(c2)C(=O)N(c2ccc(C(C)C(=O)OC(C)(C)C)cc2)C3)cc1 (stereo not drawn) [ALB-112442] |  | 1.11 |  |
| CC(C(=O)OC(C)(C)C)c1ccc(N2Cc3ccccc3C2=O)c(-c2ccccc2)c1 (stereo not drawn) [ALB-112163] |  | 1.03 |  |
| COc1ccc2c(c1)CN(c1ccc(C(C)C(=O)OC(C)(C)C)cc1)C2=O (stereo not drawn) [ALB-111893] |  | 1.09 |  |
| Cc1ccc(-c2cc(C(C)C(=O)OC(C)(C)C)ccc2N2Cc3ccccc3C2=O)cc1 (stereo not drawn) [ALB-112081] |  | 1.03 |  |
| COc1cc2c(cc1F)CN(c1ccc(C(C)C)cc1)C2=O [ALB-118413] | 119 | 1.39 |  |
| CCCNC(=O)Nc1ccc2c(c1)C(=O)N(c1ccc(C(C)C)cc1)C2 [ALB-118415] | 13200 |  | maximal fold induction [3]: 1.4 |
| CC(C)c1ccc(N2Cc3ccc(NC(=O)N(C)C(C)C)cc3C2=O)cc1 [ALB-118899] |  |  | maximal fold induction [3]: 1.08 |
| CC(C(=O)O)c1ccc(N2Cc3cc(Cl)ccc3C2=O)cc1 (stereo not drawn) [ALB-111762] | 358 | 1.38 |  |
| CC(C)Cc1ccc2c(c1)C(=O)N(c1ccc(C(C)C(=O)O)cc1)C2 (stereo not drawn) [ALB-115426] | 13 | 1.96 |  |
| COc1ccc(-c2cc(N3Cc4ccccc4C3=O)ccc2C(C)C(=O)OC(C)(C)C)cc1 (stereo not drawn) [ALB-112001] |  | 1.02 |  |
| CC(C(=O)O)c1ccc(N2Cc3cc(N4CCOCC4)ccc3C2=O)cc1 (stereo not drawn) [ALB-112554] |  | 1.06 |  |
| CC(C(=O)O)c1ccc(N2Cc3cc(Br)ccc3C2=O)cc1 (stereo not drawn) [ALB-111855] | 553 | 1.35 |  |
| COc1ccc(-c2cc(C(C)C(=O)O)ccc2N2Cc3ccccc3C2=O)cc1 (stereo not drawn) [ALB-112086] |  | 1.08 |  |
| CC(C#N)c1ccc(N2Cc3cc4c(cc3C2=O)OCCO4)cc1 (stereo not drawn) [ALB-117571] | 401 |  | maximal fold induction [3]: 1.3 |
| CCCCCc1ccc2c(c1)CN(c1ccc(C(C)C(=O)O)cc1)C2=O (stereo not drawn) [ALB-113491] |  | 1.12 |  |
| CC(C(=O)OC(C)(C)C)c1ccc(N2Cc3ccc(-c4ccccc4)cc3C2=O)cc1 (stereo not drawn) [ALB-112441] |  | 1.08 |  |
| CCCc1ccc2c(c1)C(=O)N(c1ccc(C(C)COC)cc1)C2 (stereo not drawn) [ALB-114091] | 699 | 1.46 |  |
| CC(=O)Nc1ccc2c(c1)C(=O)N(c1ccc(C(C)C)cc1)C2 [ALB-118157] | 203 |  | maximal fold induction [3]: 1.51 |

| Structure (SMILES) | EC50 [1] [nM] | maximal fold induction [2] | further results |
| --- | --- | --- | --- |
| COc1ccc(-c2ccc3c(c2)C(=O)N(c2ccc(C(C)C)cc2)C3)cc1 [ALB-118038] |  | 1.08 |  |
| CC(C(=O)OC(C)(C)C)c1ccc(N2Cc3ccc(Br)cc3C2=O)cc1 (stereo not drawn) [ALB-112327] | 4210 | 1.47 |  |
| CC(C(=O)OC(C)(C)C)c1ccc(N2Cc3ccc(-c4cccnc4)cc3C2=O)cc1 (stereo not drawn) [ALB-112473] | 2 | 1.03 |  |
| CC(C(=O)O)c1ccc(N2Cc3cccc(-c4ccc(Cl)cc4)c3C2=O)cc1 (stereo not drawn) [ALB-112175] | 16900 | 1.37 |  |
| CC(C(=O)N1CCCCC1)c1ccc(N2Cc3ccccc3C2=O)cc1 (stereo not drawn) [ALB-112078] |  | 1.15 |  |
| CC(C(=O)O)c1ccc(N2Cc3c(N)cccc3C2=O)cc1 (stereo not drawn) [ALB-111996a] |  | 1.11 |  |
| COc1cccc2c1CN(c1ccc(C(C)C(=O)OC(C)(C)C)cc1)C2=O (stereo not drawn) [ALB-111894] | 3160 | 1.29 |  |
| CC(C(=O)OC(C)(C)C)c1ccc(N2Cc3cc(-c4ccccc4)ccc3C2=O)cc1 (stereo not drawn) [ALB-111888] |  | 1.1 |  |
| CC(C(=O)OC(C)(C)C)c1ccc(N2Cc3ccccc3C2=O)c(-c2cccnc2)c1 (stereo not drawn) [ALB-112172] |  | 1.04 |  |
| CC(C(=O)O)c1ccc(N2Cc3cccc(-c4cccs4)c3C2=O)cc1 (stereo not drawn) [ALB-112158] | 11400 | 1.24 |  |
| CC(C)NC(=O)Nc1ccc2c(c1)C(=O)N(c1ccc(C(C)C)cc1)C2 [ALB-118559] |  |  | maximal fold induction [3]: 1.1 |
| CC(C(=O)O)c1ccc(N2Cc3cccc(-c4ccccc4)c3C2=O)cc1 (stereo not drawn) [ALB-112155] | 26300 | 1.19 |  |
| CCCc1ccc(N2Cc3ccc(C)cc3C2=O)cc1 [ALB-116071] | 16 | 1.35 |  |
| CC(C(=O)OC(C)(C)C)c1ccc(N2Cc3c(Br)cccc3C2=O)cc1 (stereo not drawn) [ALB-112064] |  | 1.04 |  |
| CNC(=O)Nc1ccc2c(c1)C(=O)N(c1ccc(C(C)C)cc1)C2 [ALB-118558] | 865 |  | maximal fold induction [3]: 1.58 |
| CC(C(=O)OC(C)(C)C)c1ccc(N2Cc3cccc(-c4ccc(Cl)cc4)c3C2=O)cc1 (stereo not drawn) [ALB-112153] |  | 1.02 |  |
| CC(C(=O)OC(C)(C)C)c1ccc(N2Cc3ccc(Nc4ccccc4)cc3C2=O)cc1 (stereo not drawn) [ALB-112168] |  | 1.15 |  |
| CC(C(=O)OC(C)(C)C)c1ccc(N2Cc3cc(C#N)ccc3C2=O)cc1 (stereo not drawn) [ALB-112444] | 307 | 1.04 |  |
| CC(C)COc1ccc2c(c1)C(=O)N(c1ccc(C(C)C(=O)O)cc1)C2 (stereo not drawn) [ALB-115325] | 74 | 1.57 |  |
| CC(C(=O)O)c1ccc(N2Cc3ccc(CCC(F)(F)F)cc3C2=O)cc1 (stereo not drawn) [ALB-115588] | 356 | 1.7 |  |

| Structure (SMILES) | EC50 [1] [nM] | maximal fold induction [2] | further results |
| --- | --- | --- | --- |
| CC(C)(C)OC(=O)Cc1ccc(N2Cc3ccccc3C2=O)cc1 [ALB-112230] |  | 1.1 |  |
| CC(C(=O)O)c1ccc(N2Cc3ccccc3C2=O)cc1-c1cccnc1 (stereo not drawn) [ALB-112199] |  | 1.08 |  |
| CC(C(=O)OC(C)(C)C)c1ccc(N2Cc3ccc(NS(C)(=O)=O)cc3C2=O)cc1 (stereo not drawn) [ALB-111997] | 175 |  | maximal fold induction (read-out: SMN Splice Reporter Assay (Example 10) Avg MaxFold Increase, maximum fold increase of reporter signal, average, heading: SMN Splice Reporter Assay Avg MaxFold Increase): 1.01 |
| CCCC1c2ccccc2C(=O)N1c1ccc(C(C)C(=O)O)cc1 (stereo not drawn) [ALB-111795] | 25800 | 1.41 |  |
| COC(=O)C(C)c1ccc(N2Cc3ccccc3C2)cc1 (stereo not drawn) [ALB-112192] | 5720 | 1.41 |  |
| C/C=C\c1ccc2c(c1)C(=O)N(c1ccc(C(C)COC)cc1)C2 (stereo not drawn) [ALB-114089] | 902 | 1.55 |  |
| CC(C(=O)O)c1ccc(N2Cc3cccc([N+](=O)[O-])c3C2=O)cc1 (stereo not drawn) [ALB-111995] | 12000 | 1.25 |  |
| CCCOc1ccc2c(c1)C(=O)N(c1ccc(C(C)C(=O)O)cc1)C2 (stereo not drawn) [ALB-114934] | 33 | 1.87 |  |
| CC(C(=O)OC(C)(C)C)c1ccc(N2Cc3ccc(OC(F)F)cc3C2=O)cc1 (stereo not drawn) [ALB-119336] | 718 |  | maximal fold induction [3]: 1.21 |
| CC(C(=O)OC(C)(C)C)c1ccc(N2Cc3cccc(Cl)c3C2=O)cc1 (stereo not drawn) [ALB-111783] | 1560 | 1.13 |  |
| C=Cc1ccc2c(c1)C(=O)N(c1ccc(C(C)C)cc1)C2 [ALB-115714] | 53 | 1.37 |  |
| CC(C(=O)OC(C)(C)C)c1ccc(N2Cc3ncccc3C2=O)cc1 (stereo not drawn) [ALB-112087] |  | 1.05 |  |
| CNc1ccc2c(c1)C(=O)N(c1ccc(C(C)C(=O)OC(C)(C)C)cc1)C2 (stereo not drawn) [ALB-112170] | 1040 | 1.27 |  |
| CC(C(=O)OC(C)(C)C)c1ccc(N2Cc3cc(-c4cccnc4)ccc3C2=O)cc1 (stereo not drawn) [ALB-111884] |  | 1.03 |  |
| Cc1cc(C(C)C(=O)O)ccc1N1Cc2ccccc2C1=O (stereo not drawn) [ALB-112487] |  | 1.17 |  |
| CC(C(=O)O)c1ccc(N2Cc3ccc(O)cc3C2=O)cc1 (stereo not drawn) [ALB-113103] |  | 1.04 |  |
| CC(=O)Nc1ccc2c(c1)C(=O)N(c1ccc(C(C)C(=O)OC(C)(C)C)cc1)C2 (stereo not drawn) [ALB-111960] | 6620 | 1.24 |  |
| CC(C(=O)OC(C)(C)C)c1cccc(N2Cc3ccccc3C2=O)c1 (stereo not drawn) [ALB-112361] |  | 1.09 |  |
| C=Cc1cccc2c1C(=O)N(c1ccc(C(C)C(=O)O)cc1)C2 (stereo not drawn) [ALB-113393] | 209 | 1.21 |  |
| COCCc1ccc(N2Cc3ccccc3C2=O)cc1 [ALB-115073] |  | 1.19 |  |
